Laboratory results from ChEMBL document CHEMBL3046422, “Insecticidal activity of imidacloprid derivatives with an alkoxy group at the C5 position of the pyridine ring” (2006).

Key:
Format in all cases: functional
[1] = test system: Periplaneta americana; assay: Insecticidal activity against adult male Periplaneta americana (American cockroach) dosed through injection into abdomen assessed as mortality measured 24 hr post dose pre-treated with 50 ug metabolic inhibitor PB 1 hr before compound injection
[2] = test system: Periplaneta americana; assay: Insecticidal activity against adult male Periplaneta americana (American cockroach) dosed through injection into abdomen assessed as mortality measured 24 hr post dose
[3] = test system: Periplaneta americana; assay: Insecticidal activity against adult male Periplaneta americana (American cockroach) dosed through injection into abdomen assessed as mortality measured 24 hr post dose pre-treated with 50 ug metabolic inhibitor PB and 50 ug NIA16388 1 hr before compound injection

| Compound | log(1/MLD) [1] | log(1/MLD) [2] | log(1/MLD) [3] |
| --- | --- | --- | --- |
| COc1cc(CN2CCN/C2=N\[N+](=O)[O-])cnc1Cl | 8.74 | 7.43 | 8.74 |
| CCCOc1cc(CN2CCN/C2=N\[N+](=O)[O-])cnc1Cl | 6.89 | <6.86 | 6.89 |
| CC(C)Oc1cc(CN2CCN/C2=N\[N+](=O)[O-])cnc1Cl | 7.89 | 6.99 | 8.1 |
| CCCCOc1cc(CN2CCN/C2=N\[N+](=O)[O-])cnc1Cl | 8.12 | 7.12 | 8.12 |
| CCOc1cc(CN2CCN/C2=N\[N+](=O)[O-])cnc1Cl | 7.87 | 7.07 | 8.08 |
| CCCCCOc1cc(CN2CCN/C2=N\[N+](=O)[O-])cnc1Cl | 6.46 | 5.86 | 6.46 |
| O=[N+]([O-])/N=C1\NCCN1Cc1ccc(Cl)nc1 [IMIDACLOPRID] | 10.15 | 8.96 | 10.15 |
| O=[N+]([O-])/N=C1\NCCN1Cc1cnc(Cl)c(Cl)c1 [5-CHLOROIMIDACLOPRID] | 9.05 | 8.35 | 9.05 |
| O=[N+]([O-])/N=C1/NCCN1Cc1cnc(Cl)c(F)c1 [5-FLUOROIMIDACLOPRID] | 9.91 | 8.82 | 9.91 |
